What is called Ki is the dissociation constant of the complex between target and ligand, obtained from inhibition or displacement.

This test concerns the target Ras-related C3 botulinum toxin substrate 1 (Homo sapiens) (UniProt P63000). Briefly: wildtype Rac1 GTP binding inhibitors, SAR follow-up, biochemical, oxadiazole analogs, multiplex bead flow cytometry (AID 2027). The note with it: GST-Rac1 beads, Bodipy-FL-GTP binding, Ki calculated from EC50.
Consider `Cc1ccc(C)c(N2CCN(C(=O)CCc3nc(-c4ccccc4C(F)(F)F)no3)CC2)c1`, for which the inhibitory constant (Ki) is 200 nM. The result for `COc1ccc(-c2noc(CCC(=O)N3CCN(c4ccccc4Cl)CC3)n2)cc1` reads 310 nM. The result for `COc1ccc(-c2noc(CCC(=O)N3CCN(c4ccccc4C)CC3)n2)cc1` reads 130 nM; that for `Cc1ccc(C)c(N2CCN(C(=O)CCc3nc(-c4ccccc4)no3)CC2)c1`, 150 nM. In the case of `Cc1ccc(C)c(N2CCN(C(=O)CCc3nc(-c4ccc(C(F)(F)F)cc4)no3)CC2)c1`, the inhibition constant Ki was 200 nM. The result for `COc1ccc(-c2noc(CCC(=O)N3CCN(c4cc(C)ccc4C)CC3)n2)cc1` reads 470 nM. As for `Cc1ccc(-c2noc(CCC(=O)N3CCN(c4cc(C)ccc4C)CC3)n2)cc1`, the inhibitory constant (Ki) is 300 nM.

`Cc1cccc(-c2noc(CCC(=O)N3CCN(c4cc(C)ccc4C)CC3)n2)c1`: the Ki was 110 nM. The result for `Cc1ccc(C)c(N2CCN(C(=O)CCc3nc(-c4ccccc4F)no3)CC2)c1` reads 170 nM; that for `Cc1ccc(C)c(N2CCN(C(=O)CCc3nc(-c4ccc(F)cc4)no3)CC2)c1`, 120 nM; that for `Cc1ccc(C)c(N2CCN(C(=O)CCc3nc(-c4ccc(N(C)C)cc4)no3)CC2)c1`, 260 nM. The value for `COc1cccc(-c2noc(CCC(=O)N3CCN(c4cc(C)ccc4C)CC3)n2)c1` was 570 nM; that for `COc1ccc(-c2noc(CCC(=O)N3CCN(c4ccc(C)cc4)CC3)n2)cc1` was 250 nM.

Take `COc1ccc(-c2noc(CCC(=O)N3CCN(c4ccccc4OC)CC3)n2)cc1`: the inhibition constant (Ki) is 210 nM. The value for `Cc1ccc(C)c(N2CCN(C(=O)CCc3nc(-c4ccccc4C)no3)CC2)c1` was 160 nM. The result for `COc1ccccc1-c1noc(CCC(=O)N2CCN(c3cc(C)ccc3C)CC2)n1` reads 1410 nM. The result for `COc1ccc(-c2noc(CCC(=O)N3CCN(c4ccccc4Br)CC3)n2)cc1` reads 160 nM; that for `COc1ccc(-c2noc(CCC(=O)N3CCN(c4ccc(F)cc4)CC3)n2)cc1`, 150 nM; that for `COc1ccc(-c2noc(CCC(=O)N3CCN(c4ccccc4C(F)(F)F)CC3)n2)cc1`, 160 nM.

In the case of `Cc1ccc(C)c(N2CCN(C(=O)CCc3nc(-c4ccccc4Cl)no3)CC2)c1`, the inhibition constant Ki is 110 nM. Regarding `COc1ccc(-c2noc(CCC(=O)N3CCN(c4ccccc4F)CC3)n2)cc1`, the Ki was 100 nM. `Cc1ccc(C)c(N2CCN(C(=O)CCc3nc(-c4cccc(C(F)(F)F)c4)no3)CC2)c1`: the inhibitory constant (Ki) was 230 nM. The value for `Cc1ccc(C)c(N2CCN(C(=O)CCc3nc(-c4ccc(Br)cc4)no3)CC2)c1` was 280 nM; that for `COc1ccc(-c2noc(CCC(=O)N3CCN(c4ccc(Br)cc4)CC3)n2)cc1` was 20 nM. The value for `Cc1ccc(C)c(N2CCN(C(=O)CCc3nc(-c4cccc(F)c4)no3)CC2)c1` was 140 nM; that for `COc1ccc(-c2noc(CCCC(=O)N3CCN(c4cc(C)ccc4C)CC3)n2)cc1` was 350 nM; that for `COc1ccc(-c2noc(CCC(=O)N3CCN(c4cccc(C)c4C)CC3)n2)cc1` was 120 nM. On to `COc1ccc(-c2noc(CC(=O)N3CCN(c4cc(C)ccc4C)CC3)n2)cc1`, for which the inhibition constant (Ki) was 700 nM. Regarding `Cc1ccc(C)c(N2CCN(C(=O)CCc3nc(-c4cccc(Br)c4)no3)CC2)c1`, the inhibition constant Ki was 160 nM. Consider `COc1ccc(-c2noc(CCC(=O)N3CCC(c4cc(C)ccc4C)CC3)n2)cc1`, for which the inhibition constant (Ki) is 110 nM. The value for `Cc1ccc(C)c(N2CCN(C(=O)CCc3nc(-c4cccc(Cl)c4)no3)CC2)c1` was 460 nM; that for `COc1ccc(-c2coc(CCC(=O)N3CCN(c4cc(C)ccc4C)CC3)n2)cc1` was 210 nM; that for `Cc1ccc(C)c(N2CCN(C(=O)CCc3nc(-c4ccccc4Br)no3)CC2)c1` was 160 nM. The value for `Cc1ccc(C)c(N2CCN(C(=O)CCc3nc(-c4ccc(Cl)cc4)no3)CC2)c1` was 170 nM. As for `COc1ccc(-c2noc(CCC(=O)N3CCN(c4ccc(OC)cc4)CC3)n2)cc1`, the Ki was 50 nM. The result for `COc1ccc(-c2noc(CCCCC(=O)N3CCN(c4cc(C)ccc4C)CC3)n2)cc1` reads 1960 nM.

Source of the values: PubChem BioAssay AID2027 (NMMLSC, 2009).
